Patent publication US20240423971A1, “APPLICATION OF RIP2 INHIBITOR COMBINED WITH CHEMOTHERAPY DRUG” (NINGBO COMBIREG PHARMACEUTICAL TECHNOLOGY CO., LTD., priority 2021, published 2024)

Legend:
Type in all cases: in vivo, C57BL/6 mice
melanoma (B16F10) [1] = assay: Melanoma (B16F10) tumor-bearing model, GSK583 combined with DTX; conditions: for tumor growth compared to the vehicle control group: B16-F10 s.c. in C57BL/6 mice, GSK583 1 mg/kg i.v. every 4 days x4, DTX 5 mg/kg i.v. every 7 days x3, to DAY 16
Method: Both of the test substances DTX and GSK583 were prepared as a 20×DMSO stock solution, which was diluted with normal saline containing 5% polyoxyethylene castor oil (Cremophor EL) to the administration concentration before use.
Experimental animals and tumor strains: SPF grade male wild-type C57BL/6 mice, 6 to 8 weeks old, purchased from Beijing Vital River Laboratory Animal Technology Co., Ltd. Cells used in the experiment: murine melanoma cells (B16-F10), purchased from ATCC.
Mice were randomly divided into 4 groups with 8 mice in each group based on body weight according to the method shown in (A and B of FIG. 4), namely: (i) vehicle control group; (ii) GSK583 (1 mg/kg) group; (iii) Docetaxel (DTX; 5 mg/kg) group; (iv) GSK583 (1 mg/kg)+DTX (5 mg/kg) group. DTX was administered intravenously once every 7 days for a total of 3 doses; GSK583 and vehicle control were administered intravenously once every 4 days for a total of 4 doses. The mice were subcutaneously inoculated with B16-F10 cells with a concentration of 2× 10^6 cells/mL and 0.1 mL/mouse, and the day of inoculation was recorded as DAY 0. The administration was started on DAY 1. During the administration, the animals were weighed every 2 days. The long diameter and short diameter of the tumor were measured with a vernier caliper. The tumor size was calculated by the formula: (½)×long diameter×(short diameter) 2. The mice were euthanized on DAY 16, and after dissection, the tumor was weighed and the tumor inhibition rate was calculated.

colorectal cancer (MC38) [2] = assay: Colorectal cancer (MC38) tumor-bearing model, GSK583 combined with GEM; conditions: GSK583 1 mg/kg; for tumor growth compared to the vehicle control group: MC38 s.c. in C57BL/6 mice, tumors 50 to 100 mm^3 at start, GEM 40 mg/kg i.v. once every 4 days, 4 doses, to DAY 14
Method: The test substance GEM was prepared in normal saline, and GSK583 was prepared as a 20×DMSO stock solution, which was diluted with normal saline containing 5% polyoxyethylene castor oil (Cremophor EL) to the administration concentration before use. Experimental animals and tumor strains: SPF grade male wild-type C57BL/6 mice, 6 to 8 weeks old, purchased from Beijing Vital River Laboratory Animal Technology Co., Ltd. Cells used in the experiment: murine colorectal cancer cells (MC38), purchased from Union Cell Bank (China). According to the method shown in (A and B of FIG. 8), the mice were subcutaneously inoculated with MC38 cells with a concentration of 2×10^6 cells/mL and 0.1 mL/mouse. When the tumor grew to a volume within the range of 50 to 100 mm^3, the mice were randomly divided into 4 groups with 8 mice in each group based on tumor volume, and the administration was started with the following regimen: (i) vehicle control group; (ii) GSK583 (1 mg/kg) group; (iii) GEM (40 mg/kg) group; (iv) GSK583 (1 mg/kg)+GEM (40 mg/kg) group. GEM, GSK583, and vehicle were administered intravenously once every 4 days for a total of 4 doses. The day of grouping and administration was recorded as DAY 0. During the administration, the animals were weighed every 3 days. The long diameter and short diameter of the tumor were measured with a vernier caliper. The tumor size was calculated by the formula: (½)× long diameter× (short diameter) 2. The experiment was terminated on DAY 14. After the mice were euthanized and dissected, the tumor was weighed and photographed, and the tumor inhibition rate was calculated.

melanoma (B16F10) [3] = assay: Melanoma (B16F10) tumor-bearing model, GSK583 combined with GEM; conditions: GSK583 1 mg/kg; for tumor growth compared to the vehicle control group: B16-F10 s.c. in C57BL/6 mice, GEM 60 mg/kg i.v. once every 4 days, 4 doses, to DAY 15
Method: The test substance GEM was prepared in normal saline, and GSK583 was prepared as a 20×DMSO stock solution, which was diluted with normal saline containing 5% polyoxyethylene castor oil (Cremophor EL) to the administration concentration before use. Experimental animals and tumor strains: SPF grade male wild-type C57BL/6 mice, 6 to 8 weeks old, purchased from Beijing Vital River Laboratory Animal Technology Co., Ltd. Cells used in the experiment: murine melanoma cells (B16-F10), purchased from ATCC. Mice were randomly divided into 4 groups with 8 mice in each group based on body weight according to the method shown in (A and B of FIG. 6), namely: (i) vehicle control group; (ii) GSK583 (1 mg/kg) group; (iii) GEM (60 mg/kg) group; (iv) GSK583 (1 mg/kg)+GEM (60 mg/kg) group. GEM, GSK583, and vehicle control were administered intravenously once every 4 days for a total of 4 doses. The mice were subcutaneously inoculated with B16-F10 cells with a concentration of 2× 10^6 cells/mL and 0.1 mL/mouse, and the day of inoculation was recorded as DAY 0. The administration was started on DAY 1. During the administration, the animals were weighed every 2 days. The long diameter and short diameter of the tumor were measured with a vernier caliper. The tumor size was calculated by the formula: (½)× long diameter×(short diameter) 2. The experiment was terminated on DAY 15. After the mice were euthanized and dissected, the tumor was weighed and photographed, and the tumor inhibition rate was calculated.

colorectal cancer (MC38) [4] = assay: Colorectal cancer (MC38) tumor-bearing model, GSK583 combined with OXA; conditions: GSK583 1 mg/kg; for tumor growth compared to the vehicle control group: MC38 s.c. in C57BL/6 mice, tumors 100 mm^3 at start, OXA 6 mg/kg i.v. once every 4 days, 4 doses, to DAY 14
Method: According to the method shown in (A and B of FIG. 10), the mice were subcutaneously inoculated with MC38 cells with a concentration of 5×10^6 cells/mL and 0.1 mL/mouse. […] OXA, GSK583, and vehicle were administered intravenously once every 4 days for a total of 4 doses. The day of grouping and administration was recorded as DAY 0. During the administration, the animals were weighed every 3 days. The long diameter and short diameter of the tumor were measured with a vernier caliper. The tumor size was calculated by the formula: (½)×long diameter×(short diameter) 2. The experiment was terminated on DAY 14. After the mice were euthanized and dissected, the tumor was weighed and photographed, and the tumor inhibition rate was calculated.

melanoma (B16F10) [5] = assay: Melanoma (B16F10) tumor-bearing model, GSK583 combined with PTX; conditions: B16-F10 s.c. in C57BL/6 mice; GSK583 1 mg/kg, PTX 10 mg/kg i.v. once every 4 days, 4 doses; to DAY 15
Method: Both of the test substances PTX (Sigma) and GSK583 (MCE) were prepared as a 20× DMSO stock solution, which was diluted with normal saline containing 5% (v/v) polyoxyethylene castor oil (Cremophor EL) to the administration concentration before use. Experimental animals and tumor strains: SPF grade male wild-type C57BL/6 mice, 6 to 8 weeks old, purchased from Beijing Vital River Laboratory Animal Technology Co., Ltd. Cells used in the experiment: murine melanoma cell line (B16-F10), purchased from ATCC. Mice were randomly divided into 4 groups with 8 mice in each group based on body weight according to the method shown in (A of FIG. 1 and B of FIG. 1), namely: (i) vehicle control group; (ii) GSK583 (1 mg/kg) group; (iii) PTX (10 mg/kg) group; (iv) GSK583 (1 mg/kg)+PTX (10 mg/kg) group. PTX, GSK583, and vehicle were administered intravenously once every 4 days for a total of 4 doses. The mice were subcutaneously inoculated with B16-F10 cells with a concentration of 2× 10^6 cells/mL and 0.1 mL/mouse, and the day of inoculation was recorded as DAY 0. The administration was started on DAY 1. During the administration, the animals were weighed every 2 days. The long diameter and short diameter of the tumor were measured with a vernier caliper. The tumor size was calculated by the formula: (½)×long diameter×(short diameter) 2. The experiment was terminated on DAY 15. After the mice were euthanized and dissected, the tumor was weighed and the tumor inhibition rate was calculated.

Structure (SMILES) | tumor growth compared to the vehicle control group (melanoma (B16F10) [1]) | tumor growth compared to the vehicle control group (colorectal cancer (MC38) [2]) | tumor growth compared to the vehicle control group (melanoma (B16F10) [3]) | tumor growth compared to the vehicle control group (colorectal cancer (MC38) [4]) | further results
CC(=O)O[C@@]12CO[C@@H]1C[C@H](O)[C@@]1(C)C(=O)[C@H](O)C3=C(C)[C@@H](OC(=O)[C@H](O)[C@@H](NC(=O)OC(C)(C)C)c4ccccc4)C[C@@](O)([C@@H](OC(=O)c4ccccc4)[C@H]21)C3(C)C [DTX, Docetaxel] | significantly inhibited tumor growth | – | – | – | tumor weight at the end of the administration (melanoma (B16F10) [1]; B16-F10 in C57BL/6 mice, GSK583 1 mg/kg, DTX 5 mg/kg i.v., DAY 16, vs control group): significantly and statistically lower than that of the control group; growth rate of tumor volume (melanoma (B16F10) [1]; B16-F10 in C57BL/6 mice, GSK583 1 mg/kg, DTX 5 mg/kg i.v., vs control group): slower than that of the control group
Nc1ccn([C@@H]2O[C@H](CO)[C@@H](O)C2(F)F)c(=O)n1 [GEM, Gemcitabine] | – | no significant inhibitory effect | significantly inhibited tumor growth | – | growth rate of tumor volume (colorectal cancer (MC38) [2]; MC38 in C57BL/6 mice, GEM 40 mg/kg i.v. every 4 days x4): no significant inhibitory effect; tumor weight at the end of the administration (melanoma (B16F10) [3]; B16-F10 in C57BL/6 mice, GEM 60 mg/kg i.v. every 4 days x4, DAY 15, vs control group): significantly and statistically lower than that of the control group; growth rate of tumor volume (melanoma (B16F10) [3]; B16-F10 in C57BL/6 mice, GEM 60 mg/kg i.v. every 4 days x4, vs control group): slower than that of the control group
CC(C)(C)S(=O)(=O)c1ccc2nccc(Nc3n[nH]c4ccc(F)cc34)c2c1 [GSK583] | no significant inhibitory effect on tumor growth | no significant inhibitory effect on tumor growth | no significant inhibitory effect on tumor growth | no significant inhibitory effect on tumor growth | tumor growth compared to the vehicle control group (melanoma (B16F10) [5]): no significant inhibitory effect on tumor growth
O=C1[O][Pt]2([NH][C@@H]3CCCC[C@H]3[NH]2)[O]C1=O [OXA, Oxaliplatin] | – | – | – | no significant inhibitory effect | growth rate of tumor volume (colorectal cancer (MC38) [4]; MC38 in C57BL/6 mice, OXA 6 mg/kg i.v. every 4 days x4): no significant inhibitory effect
